This is an account of results in patent US9056111B1, “Selective efflux inhibitors and related pharmaceutical compositions and methods of treatment” (STC.UNM, priority 2011, dated 2015).

Structures are written as SMILES. Read-outs that look alike come from different tables or passages of the source.

Series [1] addresses ABCB1 (Homo sapiens, UniProt P08183). Description: JC-1 efflux inhibition dose response, flow cytometry, Jurkat-DNR cells. The conditions noted are these: for IC50: Jurkat-DNR cells over-expressing ABCB1, averages of two to four replicates. The method, then: (§1) The HyperCyt® high throughput flow cytometry platform (IntelliCyt™, Albuquerque, N. Mex.) was used to sequentially sample cells from 384-well microplates (2 μL/sample) for flow cytometer presentation at a rate of 40 samples per minute.^62-63 Flow cytometric analysis was performed on a CyAn™ flow cytometer (Beckman-Coulter, Fullerton, Calif.). The resulting time-gated data files were analyzed with HyperView® software to determine compound activity in each well. Inhibition response curves were fitted by Prism® software (GraphPad Software, Inc., San Diego, Calif.) using nonlinear least-squares regression in a sigmoidal dose response model with variable slope, also known as the four-parameter logistic equation. This type of time-gated flow cytometric data analysis was described in detail for a previous ABC transporter screen from our group.^56
The assay provider's ABCB1 over-expressing Jurkat-DNR cell line is used for confirmatory follow up instead of the CCRF-Adr cells. Each cell line (Jurkat-DNR and Ig-MXP3) is run separately against all compounds (no differential cell staining) in dose response. The assay is conducted in 384-well format in a total volume of 15.1 μL. Cells and reagents are added sequentially as follows: 1) PBS buffer (5 μL/well); 2) test compound (100 nL/well); 3) drug-resistant cells (10 μL/well) pre-stained with the JC-1 substrate at 1 μM. Final in-well concentrations of test compound range from 50 μM to 69 nM over an 18 point dose response and the cell concentration is 1×10^6 cells/mL. Nicardipine (50 μM) is added to each plate as a pan-inhibition positive control. The plate is rotated end-over-end at 4 RPM and 25° C. for 30 minutes and then cell samples are analyzed and flow cytometric data of light scatter and fluorescence emission at 530+/−20 nm (488 nm excitation, FL1) are collected.
Each cell line (Jurkat-DNR and Ig-MXP3) was run separately against all compounds (no differential cell staining) in dose-response. The protocol differed from the single point screen as describe here. Cells and reagents were added sequentially as follows: 1) PBS buffer (5 μL per well); 2) test compound (100 nL per well); 3) drug-resistant cells (10 μL, per well) pre-exposed to the JC-1 substrate at 1 μM just prior to the well addition. Final in-well concentrations of test compound ranged from 50 μM to 69 nM over an 18 point dose-response and the cell concentration was 1×10^6 cells mL^−1.
For orientation: In flow cytometry, cells or beads pass a laser one at a time.

The target of series [2] is T1, ABCG2 (Homo sapiens, UniProt Q9UNQ0).
T1 sequence (Q9UNQ0 1-655): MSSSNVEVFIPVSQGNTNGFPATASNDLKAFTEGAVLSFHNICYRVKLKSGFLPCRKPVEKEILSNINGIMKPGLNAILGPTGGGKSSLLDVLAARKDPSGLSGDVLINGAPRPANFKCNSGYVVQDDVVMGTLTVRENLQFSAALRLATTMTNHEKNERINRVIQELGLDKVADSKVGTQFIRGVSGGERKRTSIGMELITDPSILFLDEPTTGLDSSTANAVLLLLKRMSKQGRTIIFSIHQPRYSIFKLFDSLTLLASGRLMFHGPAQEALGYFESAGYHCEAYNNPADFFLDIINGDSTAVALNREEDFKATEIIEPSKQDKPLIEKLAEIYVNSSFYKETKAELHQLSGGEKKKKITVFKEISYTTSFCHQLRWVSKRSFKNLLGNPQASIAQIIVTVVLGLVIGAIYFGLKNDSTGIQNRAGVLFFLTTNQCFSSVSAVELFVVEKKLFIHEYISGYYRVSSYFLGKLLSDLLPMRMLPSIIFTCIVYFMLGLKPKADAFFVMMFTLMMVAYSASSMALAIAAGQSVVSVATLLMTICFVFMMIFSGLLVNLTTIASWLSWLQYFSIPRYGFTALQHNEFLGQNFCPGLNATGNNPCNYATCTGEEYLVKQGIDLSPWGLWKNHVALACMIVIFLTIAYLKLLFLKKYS
In words: JC-1 efflux inhibition dose response, flow cytometry, Ig-MXP3 cells. The conditions noted are these: for ~Fold G2 Selective (B1/G2): quotient of average ABCB1 IC50 and average ABCG2 IC50, efflux assay. The method, then:
as §1
(§2) The assay provider's ABCB1 over-expressing Jurkat-DNR cell line is used for confirmatory follow up instead of the CCRF-Adr cells. Each cell line (Jurkat-DNR and Ig-MXP3) is run separately against all compounds (no differential cell staining) in dose response. The assay is conducted in 384-well format in a total volume of 15.1 μL. Cells and reagents are added sequentially as follows: 1) PBS buffer (5 μL/well); 2) test compound (100 nL/well); 3) drug-resistant cells (10 μL/well) pre-stained with the JC-1 substrate at 1 μM. […] Nicardipine (50 μM) is added to each plate as a pan-inhibition positive control.
(§3) Each cell line (Jurkat-DNR and Ig-MXP3) was run separately against all compounds (no differential cell staining) in dose-response. The protocol differed from the single point screen as describe here. Cells and reagents were added sequentially as follows: 1) PBS buffer (5 μL per well); 2) test compound (100 nL per well); 3) drug-resistant cells (10 μL, per well) pre-exposed to the JC-1 substrate at 1 μM just prior to the well addition.

Series [3] concerns the target T2, ABCB1 / ABCG2 (Homo sapiens, UniProt Q9UNQ0).
T2 sequence (Q9UNQ0 1-655): T1 sequence (Q9UNQ0 1-655)
The series is described as above. The following applies: human, probe JC-1 (1 µM), ~Fold G2 Selective (B1/G2), quotient of average ABCB1 IC50 and average ABCG2 IC50, efflux assay. As to the method: as §1, §2, §3

Where [4] appears, read: IC50 ABCB1 (efflux inhibition of JC-1 substrate).
[5] abbreviates: read-out: IC50 ABCB1 (efflux inhibition of JC-1 substrate).
Where [6] appears, read: read-out: IC50 ABCG2 (efflux inhibition of JC-1 substrate), Ig-MXP3 cells over-expressing ABCG2, averages of two to four replicates.

Sequence of ABCB1 (P08183 whole entry): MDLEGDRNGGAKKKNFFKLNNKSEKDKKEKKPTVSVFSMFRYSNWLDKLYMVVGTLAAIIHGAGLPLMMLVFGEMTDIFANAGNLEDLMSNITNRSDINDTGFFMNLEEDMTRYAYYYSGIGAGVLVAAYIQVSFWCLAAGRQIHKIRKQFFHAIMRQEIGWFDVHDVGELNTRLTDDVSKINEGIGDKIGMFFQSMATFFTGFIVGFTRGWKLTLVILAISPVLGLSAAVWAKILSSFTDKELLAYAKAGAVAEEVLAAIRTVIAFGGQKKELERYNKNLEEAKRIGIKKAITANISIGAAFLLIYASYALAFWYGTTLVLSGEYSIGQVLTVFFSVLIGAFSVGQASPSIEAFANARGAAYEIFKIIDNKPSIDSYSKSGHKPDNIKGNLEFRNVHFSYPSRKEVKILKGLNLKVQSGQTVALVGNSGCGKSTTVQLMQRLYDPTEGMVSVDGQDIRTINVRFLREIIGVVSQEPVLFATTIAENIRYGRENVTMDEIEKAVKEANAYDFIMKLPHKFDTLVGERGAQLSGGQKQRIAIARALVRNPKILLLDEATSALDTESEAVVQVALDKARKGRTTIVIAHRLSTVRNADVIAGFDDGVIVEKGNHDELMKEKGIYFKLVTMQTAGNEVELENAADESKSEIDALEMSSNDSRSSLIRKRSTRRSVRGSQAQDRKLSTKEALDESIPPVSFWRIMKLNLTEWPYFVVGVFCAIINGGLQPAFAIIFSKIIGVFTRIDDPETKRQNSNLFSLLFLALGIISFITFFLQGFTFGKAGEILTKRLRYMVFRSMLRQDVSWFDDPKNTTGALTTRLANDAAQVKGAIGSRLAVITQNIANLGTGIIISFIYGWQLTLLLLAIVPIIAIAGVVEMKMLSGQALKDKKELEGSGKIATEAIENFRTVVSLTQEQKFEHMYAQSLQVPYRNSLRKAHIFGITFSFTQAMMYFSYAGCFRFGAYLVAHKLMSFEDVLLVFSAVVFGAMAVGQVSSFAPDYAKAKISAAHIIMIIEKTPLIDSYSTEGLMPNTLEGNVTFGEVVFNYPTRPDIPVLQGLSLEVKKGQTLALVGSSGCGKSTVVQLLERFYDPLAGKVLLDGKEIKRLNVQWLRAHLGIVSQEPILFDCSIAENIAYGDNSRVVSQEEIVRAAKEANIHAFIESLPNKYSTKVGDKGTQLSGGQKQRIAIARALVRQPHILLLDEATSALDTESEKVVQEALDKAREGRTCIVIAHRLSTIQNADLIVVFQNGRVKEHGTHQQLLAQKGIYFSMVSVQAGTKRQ

Consider `COc1ccc2c3c([nH]c2c1)[C@H](C=C(C)C)N1C(=O)[C@@H]2CCCN2C(=O)[C@@H]1C3` [Compound 3, reference compound], for which the “efflux inhibition activity ABCB1” value in series [1] (JC-1 efflux, Jurkat-DNR) was “no activity”. Besides, the “efflux inhibition activity ABCG2” value in series [2] (JC-1 efflux, Ig-MXP3) is listed as “no activity”.
As a reminder, the IC50 is the concentration that gives 50% inhibition. As to `Cc1cc(N2CCN(C(=O)c3ccco3)CC2)n2nc(-c3cccc(Cl)c3)cc2n1` [Compound 10], the IC50 turned out to be 5.88 ± 1.17 µM in series [1] (setting [4]) and 2.78 ± 0.82 µM in series [2]. The selectivity ratio at 30 min in series [3] came to 2.1.
`O=C(c1ccoc1)N1CCN(c2cc(-c3ccccc3)nc3cc(-c4cccc(Cl)c4)nn23)CC1` [Compound 11] had an IC50 in series [1] (setting [4]) of 8.58 ± 0.63 µM. For the same molecule, in series [3], the selectivity ratio at 30 min was 7. For the same molecule, in series [2], the IC50 was determined as 1.19 ± 0.26 µM and the “~Fold G2 Selective (B1/G2)” value is reported as 7.2 fold.
Take `O=C(c1ccsc1)N1CCN(c2cc(-c3ccccc3)nc3cc(-c4cccc(Cl)c4)nn23)CC1` [Compound 12]: the concentration for half-maximal inhibition (IC50) came to 3.97 ± 0.8 µM in series [1] (setting [4]) and 1.4 ± 0.32 µM in series [2]. The selectivity ratio at 30 min in series [3] stood at 2.8.
For `O=C(c1ccccc1)N1CCN(c2cc(-c3ccccc3)nc3cc(-c4cccc(Cl)c4)nn23)CC1` [Compound 13] the same measures were 3.42 ± 1.64 µM, 1.45 ± 0.59 µM and 2.4.
With `COc1ccccc1C(=O)N1CCN(c2cc(-c3ccccc3)nc3cc(-c4cccc(Cl)c4)nn23)CC1` [Compound 14], the IC50 in series [1] (setting [4]) was 4.73 ± 1.78 µM; in series [2], 4.92 ± 4.28 µM. Moreover, the selectivity ratio at 30 min in series [3] is 1.
In the same order, the values of `COc1ccc(C(=O)N2CCN(c3cc(-c4ccccc4)nc4cc(-c5cccc(Cl)c5)nn34)CC2)cc1` [Compound 16] are 2.89 ± 0.55 µM, 2.82 ± 1.91 µM and 1.
In the same order, the values of `O=C(c1ccccc1Cl)N1CCN(c2cc(-c3ccccc3)nc3cc(-c4cccc(Cl)c4)nn23)CC1` [Compound 17] are 1.85 ± 0.75 µM, 1.31 ± 0.23 µM and 1.4.
In the same order, the values of `O=C(c1cccc(Cl)c1)N1CCN(c2cc(-c3ccccc3)nc3cc(-c4cccc(Cl)c4)nn23)CC1` [Compound 18] are 4.19 ± 1.88 µM, 2.95 ± 0.57 µM and 1.4.
For `O=C(c1ccc(Cl)cc1)N1CCN(c2cc(-c3ccccc3)nc3cc(-c4cccc(Cl)c4)nn23)CC1` [Compound 19], the IC50 in series [1] (setting [4]) amounted to 2.36 ± 0.7 µM; in series [2] it was 2.67 ± 0.85 µM. Also, the selectivity ratio at 30 min in series [3] came out at 0.9.
In the same order, the values of `O=C(C1CCCCC1)N1CCN(c2cc(-c3ccccc3)nc3cc(-c4cccc(Cl)c4)nn23)CC1` [Compound 22] are 3.31 ± 1.86 µM, 2.67 ± 1.26 µM and 1.2.
For `CC(=O)N1CCN(c2cc(-c3ccccc3)nc3cc(-c4cccc(Cl)c4)nn23)CC1` [Compound 23] the same measures were 5.67 ± 2.21 µM, 6.07 ± 0.73 µM and 0.9.
For `O=S(=O)(c1ccccc1)N1CCN(c2cc(-c3ccccc3)nc3cc(-c4cccc(Cl)c4)nn23)CC1` [Compound 25], the 50% inhibitory concentration (IC50) in series [1] (setting [4]) and in series [2] was > 50 µM in each case.
Take `O=C(c1ccoc1)N1CCN(c2cc(-c3ccccc3F)nc3cc(-c4cccc(Cl)c4)nn23)CC1` [Compound 26]: the IC50 in series [1] (setting [4]) was 4.69 ± 1.5 µM; in series [2], 1.93 ± 0.48 µM. Moreover, in series [3], the selectivity ratio at 30 min turned out to be 2.4.
Consider `O=C(c1ccoc1)N1CCN(c2cc(-c3ccc(F)cc3)nc3cc(-c4cccc(Cl)c4)nn23)CC1` [Compound 27], for which the values for the IC50 in series [1] (setting [4]) and in series [2] were 5.65 ± 0.11 µM and 2.41 ± 0.52 µM, respectively. Further, the selectivity ratio at 30 min in series [3] is 2.3.
For `COc1cccc(-c2cc(N3CCN(C(=O)c4ccoc4)CC3)n3nc(-c4cccc(Cl)c4)cc3n2)c1` [Compound 28] the same measures were 2.17 ± 1.02 µM, 1.14 ± 0.54 µM and 1.9.
In the same order, the values of `COc1ccc(-c2cc(N3CCN(C(=O)c4ccoc4)CC3)n3nc(-c4cccc(Cl)c4)cc3n2)cc1` [Compound 29] are 4.12 ± 1.05 µM, 1.71 ± 0.58 µM and 2.4.
In the same order, the values of `C#Cc1cc(N2CCN(C(=O)c3ccoc3)CC2)n2nc(-c3cccc(Cl)c3)cc2n1` [Compound 32] are 10.2 ± 3.99 µM, 2.36 ± 0.53 µM and 4.3.
`COc1ccccc1-c1cc2nc(-c3ccccc3)cc(N3CCN(C(=O)c4ccco4)CC3)n2n1` [Compound 37]: the figures for the IC50 in series [1] (setting [5]) and in series [2] (setting [6]) were 3 ± 0.57 µM and 1.03 ± 0.17 µM, respectively. In addition, in series [2], the “~Fold G2 Selective (B1/G2)” value is listed as 2.9 fold.
In the same order, the values of `COc1ccccc1-c1cc2nc(-c3ccccc3)cc(N3CCN(C(=O)c4ccccc4)CC3)n2n1` [Compound 41] are 2.31 ± 0.79 µM, 0.76 ± 0.06 µM and 3.0 fold.
In the case of `O=C(c1ccsc1)N1CCN(c2cc(-c3ccco3)nc3cc(-c4ccccc4)nn23)CC1` [Compound 68], the IC50 in series [1] (setting [5]) came to 4.93 ± 1.76 µM; in series [2] (setting [6]), 1.38 ± 1.04 µM. In addition, the “~Fold G2 Selective (B1/G2)” value in series [2] came to 3.6 fold.
In the same order, the values of `Cc1occc1C(=O)N1CCN(c2cc(-c3ccco3)nc3cc(-c4ccccc4)nn23)CC1` [Compound 70] are 11.9 ± 7.4 µM, 2.33 ± 2.23 µM and 5.1 fold.
In the same order, the values of `Cc1coc(C)c1C(=O)N1CCN(c2cc(-c3ccco3)nc3cc(-c4ccccc4)nn23)CC1` [Compound 71] are 7.32 ± 2.52 µM, 3.68 ± 2.21 µM and 2.0 fold.
For `Cc1cc(C(=O)N2CCN(c3cc(-c4ccco4)nc4cc(-c5ccccc5)nn34)CC2)c(C)o1` [Compound 72] the same measures were 12 ± 6.11 µM, 3.37 ± 1.19 µM and 3.6 fold.
Consider `O=C(c1coc2ccccc12)N1CCN(c2cc(-c3ccco3)nc3cc(-c4ccccc4)nn23)CC1` [Compound 73], for which the IC50 in series [1] (setting [5]) was determined as 8.83 ± 6.63 µM; in series [2] (setting [6]), 2.84 ± 0.96 µM. Also, the “~Fold G2 Selective (B1/G2)” value in series [2] came out at 3.1 fold.
In the case of `CN(C)CCN(C)c1cc(-c2ccco2)nc2cc(-c3ccccc3)nn12` [Compound 78], the IC50 in series [1] (setting [4]) was > 50 µM; in series [2] it was 8.88 ± 2.82 µM.
Consider `O=C(Nc1ccccc1)C1CCN(c2cc(-c3ccco3)nc3cc(-c4ccccc4)nn23)CC1` [Compound 84], for which the IC50 in series [1] (setting [4]) was > 50 µM; in series [2], 8.03 ± 2.18 µM.
